These results are taken from ChEMBL document CHEMBL4477225, “Development of a cell viability assay to assess drug metabolite structure-toxicity relationships” (Bioorg Med Chem Lett, 2016).

What all share (assay type): ADME, cell-based
The target in series [1] is T1, Cytochrome P450 3A4 (Homo sapiens, UniProt P08684). Description: Drug activation in human Hep3B cells assessed as human CYP3A4-mediated drug metabolism-induced cytotoxicity measured as decrease in cell viability at 89.6 uM pre-incubated with BSO for 18 hrs followed by incubation with compound for 3 hrs in presence of NADPH measured after 24 hrs in absence of compound, CYP3A4 and NADPH by cell titer-glo luminescence assay relative to BSO alone. The conditions noted are these: recombinant enzyme. A general note: In ATP-based viability assays light output follows the ATP content of the culture.
T1 sequence (P08684 whole entry): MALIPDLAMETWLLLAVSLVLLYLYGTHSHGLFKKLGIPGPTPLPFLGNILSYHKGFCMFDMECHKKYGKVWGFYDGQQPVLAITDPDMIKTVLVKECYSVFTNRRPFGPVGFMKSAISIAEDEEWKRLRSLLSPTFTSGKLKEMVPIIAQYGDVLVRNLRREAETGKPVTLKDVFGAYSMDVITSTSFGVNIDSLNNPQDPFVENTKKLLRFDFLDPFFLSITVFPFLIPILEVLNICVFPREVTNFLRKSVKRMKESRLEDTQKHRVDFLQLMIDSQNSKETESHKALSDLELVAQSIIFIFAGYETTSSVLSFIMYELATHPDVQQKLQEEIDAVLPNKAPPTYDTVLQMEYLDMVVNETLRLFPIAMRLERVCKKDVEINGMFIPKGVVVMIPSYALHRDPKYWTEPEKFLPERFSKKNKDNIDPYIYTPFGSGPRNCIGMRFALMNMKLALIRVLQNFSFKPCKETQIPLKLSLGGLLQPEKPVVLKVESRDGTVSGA

Series [2] deals with T2, Cytochrome P450 2D6 (Homo sapiens, UniProt P10635). Description: Drug activation in human Hep3B cells assessed as human CYP2D6-mediated drug metabolism-induced cytotoxicity measured as decrease in cell viability at 130.3 uM pre-incubated with BSO for 18 hrs followed by incubation with compound for 3 hrs in presence of NADPH measured after 24 hrs in absence of compound, CYP3A4 and NADPH by cell titer-glo luminescence assay relative to BSO alone. The following applies: recombinant enzyme.
T2 sequence (P10635 whole entry): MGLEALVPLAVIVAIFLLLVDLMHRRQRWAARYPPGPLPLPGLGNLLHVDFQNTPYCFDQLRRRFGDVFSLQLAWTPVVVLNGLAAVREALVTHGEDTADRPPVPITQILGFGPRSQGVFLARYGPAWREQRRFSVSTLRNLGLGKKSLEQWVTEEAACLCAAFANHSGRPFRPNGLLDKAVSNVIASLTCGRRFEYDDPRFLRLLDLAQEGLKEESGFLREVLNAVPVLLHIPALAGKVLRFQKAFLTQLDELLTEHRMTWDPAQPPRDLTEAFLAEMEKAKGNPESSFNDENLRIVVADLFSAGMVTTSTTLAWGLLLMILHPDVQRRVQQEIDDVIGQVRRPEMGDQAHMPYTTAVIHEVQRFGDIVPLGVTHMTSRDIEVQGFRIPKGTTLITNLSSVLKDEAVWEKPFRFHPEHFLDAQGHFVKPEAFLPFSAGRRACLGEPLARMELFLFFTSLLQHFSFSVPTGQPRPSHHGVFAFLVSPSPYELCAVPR

Series [3] has as its target T3, Cytochrome P450 2C9 (Homo sapiens, UniProt P11712). Briefly: Drug activation in human Hep3B cells assessed as human CYP2C9-mediated drug metabolism-induced cytotoxicity measured as decrease in cell viability at 118.7 uM pre-incubated with BSO for 18 hrs followed by incubation with compound for 3 hrs in presence of NADPH measured after 24 hrs in absence of compound, CYP3A4 and NADPH by cell titer-glo luminescence assay relative to BSO alone. The following applies: recombinant enzyme.

In series [4] the target is T1, Cytochrome P450 3A4. Description: Drug activation in human Hep3B cells assessed as human CYP3A4-mediated drug metabolism-induced cytotoxicity measured as decrease in cell viability at 89.1 uM pre-incubated with BSO for 18 hrs followed by incubation with compound for 3 hrs in presence of NADPH measured after 24 hrs in absence of compound, CYP3A4 and NADPH by cell titer-glo luminescence assay relative to BSO alone. The conditions noted are these: recombinant enzyme.

Series [5] concerns the target T2, Cytochrome P450 2D6. Description: Drug activation in human Hep3B cells assessed as human CYP2D6-mediated drug metabolism-induced cytotoxicity measured as decrease in cell viability at 162.8 uM pre-incubated with BSO for 18 hrs followed by incubation with compound for 3 hrs in presence of NADPH measured after 24 hrs in absence of compound, CYP3A4 and NADPH by cell titer-glo luminescence assay relative to BSO alone. The following applies: recombinant enzyme.

In series [6] the target is T3, Cytochrome P450 2C9. Briefly: Drug activation in human Hep3B cells assessed as human CYP2C9-mediated drug metabolism-induced cytotoxicity measured as decrease in cell viability at 200.9 uM pre-incubated with BSO for 18 hrs followed by incubation with compound for 3 hrs in presence of NADPH measured after 24 hrs in absence of compound, CYP3A4 and NADPH by cell titer-glo luminescence assay relative to BSO alone. The conditions noted are these: recombinant enzyme.

Series [7] concerns the target T1, Cytochrome P450 3A4. Description: Drug activation in human Hep3B cells assessed as human CYP3A4-mediated drug metabolism-induced cytotoxicity measured as decrease in cell viability at 14.9 uM pre-incubated with BSO for 18 hrs followed by incubation with compound for 3 hrs in presence of NADPH measured after 24 hrs in absence of compound, CYP3A4 and NADPH by cell titer-glo luminescence assay relative to BSO alone. The conditions noted are these: recombinant enzyme.

Series [8] deals with T2, Cytochrome P450 2D6. Description: Drug activation in human Hep3B cells assessed as human CYP2D6-mediated drug metabolism-induced cytotoxicity measured as decrease in cell viability at 20.8 uM pre-incubated with BSO for 18 hrs followed by incubation with compound for 3 hrs in presence of NADPH measured after 24 hrs in absence of compound, CYP3A4 and NADPH by cell titer-glo luminescence assay relative to BSO alone. The following applies: recombinant enzyme.

In series [9] the target is T3, Cytochrome P450 2C9. Description: Drug activation in human Hep3B cells assessed as human CYP2C9-mediated drug metabolism-induced cytotoxicity measured as decrease in cell viability at 78.1 uM pre-incubated with BSO for 18 hrs followed by incubation with compound for 3 hrs in presence of NADPH measured after 24 hrs in absence of compound, CYP3A4 and NADPH by cell titer-glo luminescence assay relative to BSO alone. The following applies: recombinant enzyme.

The target in series [10] is T1, Cytochrome P450 3A4. Description: Drug activation in human Hep3B cells assessed as human CYP3A4-mediated drug metabolism-induced cytotoxicity measured as decrease in cell viability at 10.7 uM pre-incubated with BSO for 18 hrs followed by incubation with compound for 3 hrs in presence of NADPH measured after 24 hrs in absence of compound, CYP3A4 and NADPH by cell titer-glo luminescence assay relative to BSO alone. The conditions noted are these: recombinant enzyme.

Series [11] has as its target T2, Cytochrome P450 2D6. Briefly: Drug activation in human Hep3B cells assessed as human CYP2D6-mediated drug metabolism-induced cytotoxicity measured as decrease in cell viability at 131.3 uM pre-incubated with BSO for 18 hrs followed by incubation with compound for 3 hrs in presence of NADPH measured after 24 hrs in absence of compound, CYP3A4 and NADPH by cell titer-glo luminescence assay relative to BSO alone. The conditions noted are these: recombinant enzyme.

In series [12] the target is T3, Cytochrome P450 2C9. Description: Drug activation in human Hep3B cells assessed as human CYP2C9-mediated drug metabolism-induced cytotoxicity measured as decrease in cell viability at 77.6 uM pre-incubated with BSO for 18 hrs followed by incubation with compound for 3 hrs in presence of NADPH measured after 24 hrs in absence of compound, CYP3A4 and NADPH by cell titer-glo luminescence assay relative to BSO alone. The conditions noted are these: recombinant enzyme.

For series [13], the target named is T1, Cytochrome P450 3A4. Description: Drug activation in human Hep3B cells assessed as human CYP3A4-mediated drug metabolism-induced cytotoxicity measured as decrease in cell viability at 37.6 uM pre-incubated with BSO for 18 hrs followed by incubation with compound for 3 hrs in presence of NADPH measured after 24 hrs in absence of compound, CYP3A4 and NADPH by cell titer-glo luminescence assay relative to BSO alone. The conditions noted are these: recombinant enzyme.

For series [14], the target named is T2, Cytochrome P450 2D6. Briefly: Drug activation in human Hep3B cells assessed as human CYP2D6-mediated drug metabolism-induced cytotoxicity measured as decrease in cell viability at 66.8 uM pre-incubated with BSO for 18 hrs followed by incubation with compound for 3 hrs in presence of NADPH measured after 24 hrs in absence of compound, CYP3A4 and NADPH by cell titer-glo luminescence assay relative to BSO alone. The following applies: recombinant enzyme.

Series [15] deals with T3, Cytochrome P450 2C9. Description: Drug activation in human Hep3B cells assessed as human CYP2C9-mediated drug metabolism-induced cytotoxicity measured as decrease in cell viability at 59.9 uM pre-incubated with BSO for 18 hrs followed by incubation with compound for 3 hrs in presence of NADPH measured after 24 hrs in absence of compound, CYP3A4 and NADPH by cell titer-glo luminescence assay relative to BSO alone. The conditions noted are these: recombinant enzyme.

In series [16] the target is T1, Cytochrome P450 3A4. Briefly: Drug activation in human Hep3B cells assessed as human CYP3A4-mediated drug metabolism-induced cytotoxicity measured as decrease in cell viability at 9.6 uM pre-incubated with BSO for 18 hrs followed by incubation with compound for 3 hrs in presence of NADPH measured after 24 hrs in absence of compound, CYP3A4 and NADPH by cell titer-glo luminescence assay relative to BSO alone. The following applies: recombinant enzyme.

Series [17] addresses T2, Cytochrome P450 2D6. Description: Drug activation in human Hep3B cells assessed as human CYP2D6-mediated drug metabolism-induced cytotoxicity measured as decrease in cell viability at 8.6 uM pre-incubated with BSO for 18 hrs followed by incubation with compound for 3 hrs in presence of NADPH measured after 24 hrs in absence of compound, CYP3A4 and NADPH by cell titer-glo luminescence assay relative to BSO alone. The following applies: recombinant enzyme.

Series [18] addresses T3, Cytochrome P450 2C9. Description: Drug activation in human Hep3B cells assessed as human CYP2C9-mediated drug metabolism-induced cytotoxicity measured as decrease in cell viability at 14 uM pre-incubated with BSO for 18 hrs followed by incubation with compound for 3 hrs in presence of NADPH measured after 24 hrs in absence of compound, CYP3A4 and NADPH by cell titer-glo luminescence assay relative to BSO alone. The conditions noted are these: recombinant enzyme.

Series [19] deals with T1, Cytochrome P450 3A4. Description: Drug activation in human Hep3B cells assessed as human CYP3A4-mediated drug metabolism-induced cytotoxicity measured as decrease in cell viability at 6.5 uM pre-incubated with BSO for 18 hrs followed by incubation with compound for 3 hrs in presence of NADPH measured after 24 hrs in absence of compound, CYP3A4 and NADPH by cell titer-glo luminescence assay relative to BSO alone. The conditions noted are these: recombinant enzyme.

In series [20] the target is T2, Cytochrome P450 2D6. Briefly: Drug activation in human Hep3B cells assessed as human CYP2D6-mediated drug metabolism-induced cytotoxicity measured as decrease in cell viability at 4.8 uM pre-incubated with BSO for 18 hrs followed by incubation with compound for 3 hrs in presence of NADPH measured after 24 hrs in absence of compound, CYP3A4 and NADPH by cell titer-glo luminescence assay relative to BSO alone. The following applies: recombinant enzyme.

Series [21] deals with T3, Cytochrome P450 2C9. Description: Drug activation in human Hep3B cells assessed as human CYP2C9-mediated drug metabolism-induced cytotoxicity measured as decrease in cell viability at […] uM pre-incubated with BSO for 18 hrs followed by incubation with compound for 3 hrs in presence of NADPH measured after 24 hrs in absence of compound, CYP3A4 and NADPH by cell titer-glo luminescence assay relative to BSO alone. The following applies: recombinant enzyme, 14.6 µM.

T3 sequence (P11712 whole entry): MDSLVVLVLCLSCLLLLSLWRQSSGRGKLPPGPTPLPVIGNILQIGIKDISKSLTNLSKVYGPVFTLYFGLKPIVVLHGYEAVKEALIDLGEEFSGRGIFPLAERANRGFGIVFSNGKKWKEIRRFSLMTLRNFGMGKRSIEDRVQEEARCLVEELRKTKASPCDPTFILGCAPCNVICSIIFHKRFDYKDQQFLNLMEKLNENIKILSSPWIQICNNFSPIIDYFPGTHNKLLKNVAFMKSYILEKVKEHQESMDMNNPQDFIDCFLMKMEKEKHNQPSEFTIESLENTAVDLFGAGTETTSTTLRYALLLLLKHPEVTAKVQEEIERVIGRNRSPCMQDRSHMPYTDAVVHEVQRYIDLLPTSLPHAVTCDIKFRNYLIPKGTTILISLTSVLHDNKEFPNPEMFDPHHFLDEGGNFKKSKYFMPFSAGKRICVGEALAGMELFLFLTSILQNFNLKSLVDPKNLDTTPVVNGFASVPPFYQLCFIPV

For the molecule `CN1CC(C(=O)N[C@]2(C)O[C@@]3(O)[C@@H]4CCCN4C(=O)[C@H](Cc4ccccc4)N3C2=O)C[C@@H]2c3cccc4[nH]cc(c34)C[C@H]21` (stereo partly specified), the “fold change (FC)” value at Cytochrome P450 3A4 [1] worked out at 0.7; on Cytochrome P450 2D6 [2] it was 0.5; at Cytochrome P450 2C9 [3], 0.5.
On to `CN1[C@@H]2CC[C@H]1C[C@@H](OC(c1ccccc1)c1ccccc1)C2` [BENZTROPINE], for which the “fold change (FC)” value stood at 1.2 on Cytochrome P450 3A4 [4], 0.7 on Cytochrome P450 2D6 [5] and 0.5 at Cytochrome P450 2C9 [6].
For `CC[C@@H](CO)NC(=O)[C@@H]1C=C2c3cccc4c3c(cn4C)C[C@H]2N(C)C1` [METHYSERGIDE], the “fold change (FC)” value was determined as 2.9 at Cytochrome P450 3A4 [7], 2.1 on Cytochrome P450 2D6 [8] and 0.6 at Cytochrome P450 2C9 [9].
Regarding `CCN(CC)CC#CCOC(=O)C(O)(c1ccccc1)C1CCCCC1` (stereo unspecified) [OXYBUTYNIN], the “fold change (FC)” value at Cytochrome P450 3A4 [10] was 4.3; at Cytochrome P450 2D6 [11], 0.4; at Cytochrome P450 2C9 [12], 0.6.
Consider `CC(C)(C)NC[C@H](O)COc1ccccc1C1CCCC1` [PENBUTOLOL], for which the “fold change (FC)” value is 1.5 at Cytochrome P450 3A4 [13], 0.8 at Cytochrome P450 2D6 [14] and 0.9 at Cytochrome P450 2C9 [15].
Consider `CC(COc1ccccc1)N(CCCl)Cc1ccccc1` (stereo unspecified) [PHENOXYBENZAMINE], for which the “fold change (FC)” value was 1.3 on Cytochrome P450 3A4 [16], 1.5 at Cytochrome P450 2D6 [17] and 0.9 at Cytochrome P450 2C9 [18].
As for `COc1cc(NC(C)CCCN)c2ncccc2c1` (stereo unspecified) [PRIMAQUINE], the “fold change (FC)” value came out at 12.3 at Cytochrome P450 3A4 [19] and 16.7 on Cytochrome P450 2D6 [20]. Further, the FC at Cytochrome P450 2C9 [21] worked out at 5.5.
